The test system of this series is rats. The series is described as follows: Toxicity on rats after oral administration, 3 months (Table 2'). Type of series: in vivo, rat. To be noted: for Perished animals/total animals, Sum / Perished animals/total animals: male rats. The procedure:
10 animals were treated with the substance in question for 3 months. […] A dosage corresponding to 20 mg./kg. of Indomethacine was added during the first, that corresponding to 40 mg./kg. of Indomethacine during the second, and that corresponding to 60 mg./kg. of Indomethacine during the third month. The animals of the control group received suspending agent only.

As for `COc1ccc2c(c1)c(CC(=O)OCC(Cl)(Cl)Cl)c(C)n2C(=O)c1ccc(Cl)cc1` [Example 5, 1-(p-chlorobenzoyl)-2-methyl-5-methoxy-indol-3-yl-acetic-acid trichloroethyl ester], the “Perished animals/total animals, Sum” value by setting is: (oral 27.3 mg./kg., 1st month) 1/10; (oral 54.7 mg./kg., through 2nd month) 2/10; (oral 80.0 mg./kg., through 3rd month) 4/10. Further, the Perished animals/total animals is on record as 1/9 (oral 54.7 mg./kg., 2nd month) and 2/8 (oral 80.0 mg./kg., 3rd month). Further, the “toxicity compared with Indomethacine” value (rats (and mice), oral) is “far less toxic than Indomethacine not only on mice but also on rats”. In addition, under “rats, oral, observation period”, the “perishment during the observation period compared with Indomethacine” value was “the same as for Indomethacine”.

The values above are taken from patent US3989837A, “Pharmaceutical compositions” (Chinoin Gyogyszer-es Vegyeszeti Termekek Gyara RT, priority 1972, dated 1976).
